From ChEMBL document CHEMBL2203140, “Syntheses and structure-activity relationship studies of N-substituted-β-D-glucosaminides as selective cytotoxic agents” (Bioorg Med Chem Lett, 2012)

Experiments:
Type in all cases: functional, cell-based
HT-1080 = test: Cytotoxicity against human HT1080 cells after 48 hrs by MTT assay; settings: HT-1080, 48 h
A549 = test: Cytotoxicity against human A549 cells after 48 hrs by MTT assay; settings: A549, 48 h
MCF7 = test: Cytotoxicity against human MCF7 cells after 48 hrs by MTT assay; settings: MCF7, 48 h
HCT-116 = test: Cytotoxicity against human HCT116 cells after 48 hrs by MTT assay; settings: HCT-116, 48 h
HeLa = test: Cytotoxicity against human HeLa cells after 48 hrs by MTT assay
HepG2 = test: Cytotoxicity against human HepG2 cells after 48 hrs by MTT assay; settings: HepG2, 48 h

Compound	IC50 (HT-1080) [µM]	IC50 (A549) [µM]	IC50 (MCF7) [µM]	IC50 (HCT-116) [µM]	IC50 (HeLa) [µM]	IC50 (HepG2) [µM]
C[C@@H]1CC[C@@]2(OC1)O[C@H]1C[C@H]3[C@@H]4CC=C5C[C@@H](O[C@@H]6O[C@H](CO)[C@@H](O)[C@H](O)[C@H]6NC(=O)/C=C/c6ccccc6[N+](=O)[O-])CC[C@]5(C)[C@H]4CC[C@]3(C)[C@H]1[C@@H]2C	36.5	> 50	> 50	> 50	> 50	> 50
COc1cccc(/C=C/C(=O)N[C@H]2[C@H](O[C@H]3CC[C@@]4(C)C(=CC[C@H]5[C@@H]6C[C@@H]7O[C@]8(CC[C@@H](C)CO8)[C@@H](C)[C@@H]7[C@@]6(C)CC[C@@H]54)C3)O[C@H](CO)[C@@H](O)[C@@H]2O)c1	26.6	26.9	24.1	> 50	27	> 50
